Measured values: US11623927B2, “Substituted [1,2,4]triazolo[1,5-a]pyrimidines for stabilizing microtubules” (THE TRUSTEES OF THE UNIVERSITY OF PENNSYLVANIA, priority 2018, dated 2023)

Experiments:
MTs [1] = conditions: in words; versus vincristine, taxol, colchicine; cited from earlier work
MTs [2] = conditions: in words; cited from earlier work
total α-tubulin = assay: cell-based MT assay: total α-tubulin by ELISA in cell lysates; conditions: for Total α-Tubulin: 4 h incubation, ELISA, relative level, average and SD of triplicate; for effect on total tubulin: in words, see FIG. 1 (compound 22, HEK-293 cells, 4 h)
Procedure: (§1) The compounds where then evaluated in a cell-based MT assay as described in Kovalevich, Characterization of brain-penetrant pyrimidine-containing molecules with differential microtubule-stabilizing activities developed as potential therapeutic agents for Alzheimer's disease and related tauopathies. J. Pharmacol. Exp. Ther., 2016, 357, 432-50. In summary, acetylated α-tubulin and total α-tubulin levels were determined by ELISA in cell lysates after 4 h of incubation with test compound at either 1 or 10 μM. See, Table 1.

acetylated α-tubulin = assay: cell-based MT assay: acetylated α-tubulin by ELISA in cell lysates; conditions: for Acetylated α-Tubulin: 4 h incubation, ELISA, relative level, average and SD of triplicate; for relative activity in the cell-based MT assay / shape of dose-response: in words; for relative activity in the cell-based MT assay: comparison among tested compounds; for shape of dose-response: see FIG. 1 (compound 22, HEK-293 cells, 4 h)
Procedure: as §1

CNCCCOc1cc(F)c(-c2c(Cl)nc3ncnn3c2N[C@@H](C)C(F)(F)F)c(F)c1 [Cevipabulin (1), Cevipabulin]
competition for binding to MTs (MTs [1]): competes with vincristine but not taxol or colchicine

CO[C@H]1C[C@H]2CC[C@@H](C1)N2c1c(-c2c(F)cc(F)cc2F)c(Cl)nc2ncnn12 [Compound 2, reference compound]
binding to MTs versus unpolymerized tubulin heterodimers (MTs [2]): binds exclusively to MTs and not to unpolymerized tubulin heterodimers | Total α-Tubulin (total α-tubulin; 1 μM test compound): 1.12 ± 0.08

C[C@H](Nc1c(-c2c(F)cc(OCCCNC(=O)c3ccc(C4(C(F)(F)F)N=N4)cc3)cc2F)c(Cl)nc2ncnn12)C(F)(F)F [Compound 11, (S)—N-(3-(4-(5-chloro-7-((1,1,1-trifluoropropan-2-yl)amino)-[1,2,4]triazolo[1,5-a]pyrimidin-6-yl)-3,5-difluorophenoxy)propyl)-4-(3-(trifluoromethyl)-3H-diazirin-3-yl)benzamide]
Total α-Tubulin (total α-tubulin; 10 μM test compound): 0.88 ± 0.05 | Acetylated α-Tubulin (acetylated α-tubulin; 1 μM test compound): 1.30 ± 0.28

C[C@H](Nc1c(-c2c(F)cc(F)cc2F)c(Cl)nc2ncnn12)C1(C)N=N1 [Compound 14, (S)-5-chloro-N-(1-(3-methyl-3H-diazirin-3-yl)ethyl)-6-(2,4,6-trifluorophenyl)-[1,2,4]triazolo[1,5-a]pyrimidin-7-amine]
Total α-Tubulin (total α-tubulin; 10 μM test compound): 0.94 ± 0.02

C[C@@H](Nc1c(-c2c(F)cc(OCCCN(C)C)cc2F)c(Cl)nc2ncnn12)C1(C)N=N1 [Compound 21, (R)-5-chloro-6-(4-(3-(dimethylamino)propoxy)-2,6-difluorophenyl)-N-(1-(3-methyl-3H-diazirin-3-yl)ethyl)-[1,2,4]triazolo[1,5-a]pyrimidin-7-amine]
effect on total tubulin (total α-tubulin): profound loss of total tubulin in a dose-dependent manner | Acetylated α-Tubulin (acetylated α-tubulin; 10 μM test compound): 0.93 ± 0.03 | relative activity in the cell-based MT assay (acetylated α-tubulin): most active | shape of dose-response (acetylated α-tubulin): bell-shaped dose-response

CN(C)CCCOc1cc(F)c(-c2c(Cl)nc3ncnn3c2NCC2(C)N=N2)c(F)c1 [Compound 22, 5-chloro-6-(4-(3-(dimethylamino)propoxy)-2,6-difluorophenyl)-N-((3-methyl-3H-diazirin-3-yl)methyl)-[1,2,4]triazolo[1,5-a]pyrimidin-7-amine]
effect on total tubulin (total α-tubulin): profound loss of total tubulin in a dose-dependent manner | relative activity in the cell-based MT assay (acetylated α-tubulin): most active | shape of dose-response (acetylated α-tubulin): bell-shaped dose-response
